# Test results taken from US5006468A, “Novel urease and method of producing the same” (Suntory Limited, priority 1987, dated 1991).
# Tested on: urease produced by Arthrobacter mobilis SAM0752 (FERM BP-2127)
# Assay: Km value for urea of the purified urease
# Type: biochemical
# Conditions: 0.1M acetic acid buffer (pH 4.5), 37° C.
# Experimental: The activity was determined by measuring the amount of ammonia produced by decomposition of urea during the enzyme reaction per unit of time. In particular, 0.025 ml of an enzyme solution was added to a reaction solution containing 0.2 ml of a 0.1M acetic acid buffer (pH 4.5) and 0.025 ml of a 0.1M urea solution, followed by incubation at 37° C. for a given time (10 to 20 minutes). The reaction was terminated by adding 0.025 ml of a 33% trichloroacetic acid solution. […] of the reaction solution was added to 1 ml of a coloring solution which had been prepared by mixing 10 ml of a 0.3M phosphate buffer (pH 7.5), 0.56 ml of 25 mg/ml o-phthalaldehyde in ethanol, and 0.56 ml of 5 mg/ml 2-mercaptoethanol in ethanol. After allowing the thus-obtained mixture to stand for 45 minutes at room temperature, the increase in absorbance at a wavelength of 410 nm was measured. The enzyme activity was then calculated from a calibration curve which was formed using predetermined amounts of ammonium chloride as a reference substance. This method was based on the method by Heini et al. [Eur. J. Biochem., 162, 541 (1987)]. The activity unit of the enzyme was defined as the amount of ammonia produced in terms of μ mol/min.
structure (smiles),measurement,setting,value
NC(N)=O [urea],Km,20% ethanol added,~3.7 mM
same,Km,no ethanol added,~3.6 mM
